The values below come from patent publication US20220177508A1, “C10-Cyclic Substituted 13-Membered Macrolides and Uses Thereof” (Zikani Therapeutics, Inc., priority 2018, published 2022).

≈ marks a conversion by molar mass, not a printed value.

Common to all, as to format: cell-based
One test has as its system S. aureus MP-12. The test can be described thus: Broth dilution MIC determination (CLSI), S. aureus MP-12. To be noted: Staphylococcus aureus, MP12; strain MP-12, broth dilution.
The subject of a further test is A. baumannii MP-15. The test can be described thus: Broth dilution MIC determination (CLSI), A. baumannii MP-15. As to conditions: Acinetobacter baumannii, MP15; strain MP-15, broth dilution; read-out: MIC A. baumanii MP-15. Background: In broth dilution the organism is exposed to a series of concentrations in liquid medium.
For the next test, the system named is E. coli MP-4. The test can be described thus: Broth dilution MIC determination (CLSI), E. coli MP-4. To be noted: Escherichia coli, MP4; strain MP-4, broth dilution; read-out: MIC E. coli MP-4.
A further test has as its system K. pneumoniae MP-546. Put plainly: Broth dilution MIC determination (CLSI), K. pneumoniae MP-546. To be noted: Klebsiella pneumoniae, MP546; strain MP-546, broth dilution.
The test system of another test is P. aeruginosa MP-3. Put plainly: Broth dilution MIC determination (CLSI), P. aeruginosa MP-3. As to conditions: Pseudomonas aeruginosa, MP3; strain MP-3, broth dilution.

Turning to `CO[C@]1(C)C[C@@H](C)CN(C)[C@H](C2CC3CCC(C2)N3C(C)C)COC(=O)C(C)(C)C(=O)[C@H](C)[C@H]1O[C@@H]1O[C@H](C)C[C@H](N(C)C)[C@H]1O` (stereo partly drawn) [Compound 170, (3R,6R,8R,9R,10R)-9-(((2S,3R,4S,6R)-4-(dimethylamino)-3-hydroxy-6-methyltetrahydro-2H-pyran-2-yl)oxy)-3-(8-isopropyl-8-azabicyclo[3.2.1]octan-3-yl)-8-methoxy-4,6,8,10,12,12-hexamethyl-1-oxa-4-azacyclotridecane-11,13-dione], the MIC is 4 to 32 µg/mL (≈ 6.14 to 49.1 µM) in the test with S. aureus MP-12; greater than 32 µg/mL in the test with A. baumannii MP-15; 4 to 32 µg/mL (≈ 6.14 to 49.1 µM) in the test on E. coli MP-4; 4 to 32 µg/mL (≈ 6.14 to 49.1 µM) in the test with K. pneumoniae MP-546; greater than 32 µg/mL in the test on P. aeruginosa MP-3.

`CO[C@]1(C)C[C@@H](C)CN(C)[C@H]([C@H]2CCCN(C)C2)COC(=O)C(C)(C)C(=O)[C@H](C)[C@H]1O[C@@H]1O[C@H](C)C[C@H](N(C)C)[C@H]1O` [Compound 171, (3R,6R,8R,9R,10R)-9-(((2S,3R,4S,6R)-4-(dimethylamino)-3-hydroxy-6-methyltetrahydro-2H-pyran-2-yl)oxy)-8-methoxy-4,6,8,10,12,12-hexamethyl-3-((S)-1-methylpiperidin-3-yl)-1-oxa-4-azacyclotridecane-11,13-dione]: the minimal inhibitory concentration (MIC) against S. aureus MP-12 was greater than 32 µg/mL; in the test on A. baumannii MP-15, greater than 32 µg/mL; with E. coli MP-4, 4 to 32 µg/mL (≈ 6.69 to 53.5 µM); in the test with K. pneumoniae MP-546, 4 to 32 µg/mL (≈ 6.69 to 53.5 µM); against P. aeruginosa MP-3, greater than 32 µg/mL.

As to `CO[C@]1(C)C[C@@H](C)CN(C)[C@H](C2CN(Cc3cn(C)cn3)C2)COC(=O)C(C)(C)C(=O)[C@H](C)[C@H]1O[C@@H]1O[C@H](C)C[C@H](N(C)C)[C@H]1O` [Compound 173, (3R,6R,8R,9R,10R)-9-(((2S,3R,4S,6R)-4-(dimethylamino)-3-hydroxy-6-methyltetrahydro-2H-pyran-2-yl)oxy)-8-methoxy-4,6,8,10,12,12-hexamethyl-3-(1-((1-methyl-1H-imidazol-4-yl)methyl)azetidin-3-yl)-1-oxa-4-azacyclotridecane-11,13-dione], the MIC is greater than 32 µg/mL in the test on S. aureus MP-12; greater than 32 µg/mL with A. baumannii MP-15; 4 to 32 µg/mL (≈ 6.16 to 49.2 µM) with E. coli MP-4; greater than 32 µg/mL with K. pneumoniae MP-546; greater than 32 µg/mL with P. aeruginosa MP-3.

Take `CO[C@]1(C)C[C@@H](C)CN(C(C)=O)[C@H](C2CCN(C(C)C)CC2)COC(=O)C(C)(C)C(=O)[C@H](C)[C@H]1O[C@@H]1O[C@H](C)C[C@H](N(C)C)[C@H]1O` [Compound 174, (3R,6R,8R,9R,10R)-4-Acetyl-9-(((2S,3R,4S,6R)-4-(dimethylamino)-3-hydroxy-6-methyltetrahydro-2H-pyran-2-yl)oxy)-3-(1-isopropylpiperidin-4-yl)-8-methoxy-6,8,10,12,12-pentamethyl-1-oxa-4-azacyclotridecane-11,13-dione]: the minimum inhibitory concentration (MIC) against S. aureus MP-12, in the test on A. baumannii MP-15, in the test on E. coli MP-4, in the test with K. pneumoniae MP-546 and against P. aeruginosa MP-3 was greater than 32 µg/mL in each case.

With `CCN1CCC([C@H]2COC(=O)C(C)(C)C(=O)[C@H](C)[C@@H](O[C@@H]3O[C@H](C)C[C@H](N(C)C)[C@H]3O)[C@](C)(OC)C[C@@H](C)CN2C)CC1` [Compound 175, (3S,6R,8R,9R,10R)-9-(((2S,3R,4S,6R)-4-(dimethylamino)-3-hydroxy-6-methyltetrahydro-2H-pyran-2-yl)oxy)-3-(1-ethylpiperidin-4-yl)-8-methoxy-4,6,8,10,12,12-hexamethyl-1-oxa-4-azacyclotridecane-11,13-dione], the MIC in the test with S. aureus MP-12 is 4 to 32 µg/mL (≈ 6.54 to 52.3 µM); in the test on A. baumannii MP-15 it was greater than 32 µg/mL; in the test with E. coli MP-4, less than 4 µg/mL; in the test with K. pneumoniae MP-546, less than 4 µg/mL; against P. aeruginosa MP-3, greater than 32 µg/mL.

For `CO[C@]1(C)C[C@@H](C)CN(C)[C@H](C2CCN(Cc3nccn3C)CC2)COC(=O)C(C)(C)C(=O)[C@H](C)[C@H]1O[C@@H]1O[C@H](C)C[C@H](N(C)C)[C@H]1O` [Compound 179, (3R,6R,8R,9R,10R)-9-(((2S,3R,4S,6R)-4-(dimethylamino)-3-hydroxy-6-methyltetrahydro-2H-pyran-2-yl)oxy)-8-methoxy-4,6,8,10,12,12-hexamethyl-3-(1-((1-methyl-1H-imidazol-2-yl)methyl)piperidin-4-yl)-1-oxa-4-azacyclotridecane-11,13-dione], the minimum inhibitory concentration (MIC) is 4 to 32 µg/mL (≈ 5.9 to 47.2 µM) in the test with S. aureus MP-12; greater than 32 µg/mL in the test with A. baumannii MP-15; less than 4 µg/mL with E. coli MP-4; 4 to 32 µg/mL (≈ 5.9 to 47.2 µM) in the test on K. pneumoniae MP-546; greater than 32 µg/mL against P. aeruginosa MP-3.

For the compound `CO[C@]1(C)C[C@@H](C)CN(C)[C@@H]([C@H]2CC[C@H](N(C)C(=O)CNC3CC3)CC2)COC(=O)C(C)(C)C(=O)[C@H](C)[C@H]1O[C@@H]1O[C@H](C)C[C@H](N(C)C)[C@H]1O` [Compound 180, 2-(cyclopropylamino)-N-((1S,4r)-4-((3S,6R,8R,9R,10R)-9-(((2S,3R,4S,6R)-4-(dimethylamino)-3-hydroxy-6-methyltetrahydro-2H-pyran-2-yl)oxy)-8-methoxy-4,6,8,10,12,12-hexamethyl-11,13-dioxo-1-oxa-4-azacyclotridecan-3-yl)cyclohexyl)-N-methylacetamide], the MIC was greater than 32 µg/mL against S. aureus MP-12; greater than 32 µg/mL with A. baumannii MP-15; 4 to 32 µg/mL (≈ 5.64 to 45.1 µM) in the test with E. coli MP-4; greater than 32 µg/mL against K. pneumoniae MP-546; greater than 32 µg/mL against P. aeruginosa MP-3.

On to `CO[C@]1(C)C[C@@H](C)CN(C)[C@H]([C@@H]2CCN(C)C2)COC(=O)C(C)(C)C(=O)[C@H](C)[C@H]1O[C@@H]1O[C@H](C)C[C@H](N(C)C)[C@H]1O` [Compound 182, (3R,6R,8R,9R,10R)-9-(((2S,3R,4S,6R)-4-(dimethylamino)-3-hydroxy-6-methyltetrahydro-2H-pyran-2-yl)oxy)-8-methoxy-4,6,8,10,12,12-hexamethyl-3-((R)-1-methylpyrrolidin-3-yl)-1-oxa-4-azacyclotridecane-11,13-dione], for which the MIC against S. aureus MP-12 was greater than 32 µg/mL; with A. baumannii MP-15, greater than 32 µg/mL; in the test on E. coli MP-4, less than 4 µg/mL; against K. pneumoniae MP-546 it was less than 4 µg/mL; in the test on P. aeruginosa MP-3 it was greater than 32 µg/mL.

As for `CO[C@]1(C)C[C@@H](C)CN(C)[C@@H](C2CN(C(=O)CN(C)C)C2)COC(=O)C(C)(C)C(=O)[C@H](C)[C@H]1O[C@@H]1O[C@H](C)C[C@H](N(C)C)[C@H]1O` [Compound 184, (3S,6R,8R,9R,10R)-9-(((2S,3R,4S,6R)-4-(dimethylamino)-3-hydroxy-6-methyltetrahydro-2H-pyran-2-yl)oxy)-3-(1-(dimethylglycyl)azetidin-3-yl)-8-methoxy-4,6,8,10,12,12-hexamethyl-1-oxa-4-azacyclotridecane-11,13-dione], the MIC against S. aureus MP-12 was 4 to 32 µg/mL (≈ 6.24 to 49.9 µM); in the test with A. baumannii MP-15 it was greater than 32 µg/mL; in the test with E. coli MP-4 it was less than 4 µg/mL; against K. pneumoniae MP-546 it was less than 4 µg/mL; in the test with P. aeruginosa MP-3 it was greater than 32 µg/mL.

In the case of `CO[C@]1(C)C[C@@H](C)CN(C)[C@H](c2ccc(-c3cccnc3)cc2)COC(=O)C(C)(C)C(=O)[C@H](C)[C@@H]1O[C@@H]1O[C@@H](C)C[C@H](N(C)C)[C@H]1O` [Compound 188], the MIC against S. aureus MP-12, in the test with A. baumannii MP-15, in the test with E. coli MP-4, against K. pneumoniae MP-546 and against P. aeruginosa MP-3 was greater than 32 µg/mL each time.

Take `CO[C@]1(C)C[C@@H](C)CN(C)[C@@H](C2CCN(C[C@@H](N)CO)CC2)CO[C@@H](O)C(C)(C)C(=O)[C@H](C)[C@H]1O[C@@H]1O[C@H](C)C[C@H](N(C)C)[C@H]1O` [Compound 199]: the MIC against S. aureus MP-12 was 4 to 32 µg/mL (≈ 6.07 to 48.6 µM); with A. baumannii MP-15, greater than 32 µg/mL; in the test on E. coli MP-4, less than 4 µg/mL; against K. pneumoniae MP-546 it was less than 4 µg/mL; in the test on P. aeruginosa MP-3 it was greater than 32 µg/mL.

By MIC is commonly meant the lowest concentration found to suppress growth.
